Results as given in PubChem BioAssay (NCI).
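At the GI50, growth is halved. TGI denotes the concentration required for complete inhibition of growth.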

Key:
Experiment in all cases: DTP human tumour cell line panel, 384-well format
HCC-2998 colon = tested on: HCC-2998 colon
SK-MEL-28 melanoma = tested on: SK-MEL-28 melanoma
NCI-H23 lung = tested on: NCI-H23 lung
NCI-H226 lung = tested on: NCI-H226 lung
BT-549 breast = tested on: BT-549 breast
COLO 205 colon = tested on: COLO 205 colon
SW-620 colon = tested on: SW-620 colon
UACC-62 melanoma = tested on: UACC-62 melanoma
SF-268 CNS = tested on: SF-268 CNS
MOLT-4 leukemia = tested on: MOLT-4 leukemia
M14 melanoma = tested on: M14 melanoma
SK-MEL-5 melanoma = tested on: SK-MEL-5 melanoma
CAKI-1 renal = tested on: CAKI-1 renal
UACC-257 melanoma = tested on: UACC-257 melanoma
SF-295 CNS = tested on: SF-295 CNS
SNB-19 CNS = tested on: SNB-19 CNS
HOP-92 NSCLC = tested on: HOP-92 NSCLC
ACHN renal = tested on: ACHN renal
NCI-H322M lung = tested on: NCI-H322M lung
HS 578T breast = tested on: HS 578T breast
A549 NSCLC = tested on: A549 NSCLC
SN12C renal = tested on: SN12C renal
HL-60(TB) leukemia = tested on: HL-60(TB) leukemia
NCI-H522 lung = tested on: NCI-H522 lung
OVCAR-8 ovarian = tested on: OVCAR-8 ovarian
OVCAR-4 ovarian = tested on: OVCAR-4 ovarian
HCT-116 colon = tested on: HCT-116 colon
SF-539 CNS = tested on: SF-539 CNS
OVCAR-3 ovarian = tested on: OVCAR-3 ovarian
RPMI-8226 leukemia = tested on: RPMI-8226 leukemia
LOX IMVI melanoma = tested on: LOX IMVI melanoma
NCI-H460 NSCLC = tested on: NCI-H460 NSCLC
TK-10 renal = tested on: TK-10 renal
HCT-15 colon = tested on: HCT-15 colon
IGROV1 ovarian = tested on: IGROV1 ovarian
T-47D breast = tested on: T-47D breast
NCI/ADR-RES ovarian = tested on: NCI/ADR-RES ovarian
MDA-MB-231 breast = tested on: MDA-MB-231 breast
KM12 colon = tested on: KM12 colon
MDA-MB-468 breast = tested on: MDA-MB-468 breast
MDA-MB-435 melanoma = tested on: MDA-MB-435 melanoma
HT29 colon = tested on: HT29 colon
U251 glioblastoma = tested on: U251 glioblastoma
MALME-3M melanoma = tested on: MALME-3M melanoma
PC-3 prostate = tested on: PC-3 prostate
HOP-62 NSCLC = tested on: HOP-62 NSCLC
SK-OV-3 ovarian = tested on: SK-OV-3 ovarian
OVCAR-5 ovarian = tested on: OVCAR-5 ovarian
DU-145 prostate = tested on: DU-145 prostate
A498 renal = tested on: A498 renal
SR leukemia = tested on: SR leukemia
786-0 renal = tested on: 786-0 renal
MCF7 breast = tested on: MCF7 breast

CO[C@H]1C[C@@H]2CC[C@@H](C)[C@@](O)(O2)C(=O)C(=O)N2CCCC[C@H]2C(=O)O[C@H]([C@H](C)C[C@@H]2CC[C@@H](OC(=O)C(C)(CO)CO)[C@H](OC)C2)CC(=O)[C@H](C)/C=C(\C)[C@@H](O)[C@@H](OC)C(=O)[C@H](C)C[C@H](C)/C=C/C=C/C=C/1C
GI50 (HCC-2998 colon): 1.2 µM
TGI (HCC-2998 colon): 11.6 µM
GI50 (SK-MEL-28 melanoma): 3.04 µM
TGI (SK-MEL-28 melanoma): 14.7 µM
GI50 (NCI-H23 lung): 1.93 µM
TGI (NCI-H23 lung): 15.7 µM
GI50 (NCI-H226 lung): 1.11 µM
TGI (NCI-H226 lung): 4.08 µM
TGI (BT-549 breast): 1.7 µM
GI50 (COLO 205 colon): 11.2 µM
TGI (COLO 205 colon): 23.3 µM
GI50 (SW-620 colon): 11.2 µM
TGI (SW-620 colon): 23.9 µM
GI50 (UACC-62 melanoma): 1.79 µM
TGI (UACC-62 melanoma): 15 µM
GI50 (SF-268 CNS): 2.81 µM
TGI (SF-268 CNS): 14.1 µM
TGI (MOLT-4 leukemia): 1.54 µM
GI50 (M14 melanoma): 5.55 µM
TGI (M14 melanoma): 19.8 µM
GI50 (SK-MEL-5 melanoma): 1.63 µM
TGI (SK-MEL-5 melanoma): 11.4 µM
GI50 (CAKI-1 renal): 1.26 µM
TGI (CAKI-1 renal): 15.1 µM
GI50 (UACC-257 melanoma): 8.32 µM
TGI (UACC-257 melanoma): 20.3 µM
TGI (SF-295 CNS): 3.62 µM
GI50 (SNB-19 CNS): 5.96 µM
TGI (SNB-19 CNS): 20.2 µM
GI50 (HOP-92 NSCLC): 2.75 µM
TGI (HOP-92 NSCLC): 8.39 µM
GI50 (ACHN renal): 2.31 µM
TGI (ACHN renal): 15.1 µM
GI50 (NCI-H322M lung): 1.32 µM
TGI (NCI-H322M lung): 12.7 µM
TGI (HS 578T breast): 1.74 µM
TGI (A549 NSCLC): 15.4 µM
GI50 (SN12C renal): 4.56 µM
TGI (SN12C renal): 19.2 µM
GI50 (HL-60(TB) leukemia): 1.63 µM
TGI (HL-60(TB) leukemia): 3 µM
GI50 (NCI-H522 lung): 2.23 µM
TGI (NCI-H522 lung): 11.5 µM
GI50 (OVCAR-8 ovarian): 0.791 µM
TGI (OVCAR-8 ovarian): 15.9 µM
GI50 (OVCAR-4 ovarian): 1.53 µM
TGI (OVCAR-4 ovarian): 12.6 µM
GI50 (HCT-116 colon): 3.23 µM
TGI (HCT-116 colon): 15.5 µM
GI50 (SF-539 CNS): 1.12 µM
TGI (SF-539 CNS): 15.1 µM
GI50 (OVCAR-3 ovarian): 0.867 µM
TGI (OVCAR-3 ovarian): 13.9 µM
TGI (RPMI-8226 leukemia): 1.06 µM
GI50 (LOX IMVI melanoma): 1.19 µM
TGI (LOX IMVI melanoma): 11.3 µM
GI50 (NCI-H460 NSCLC): 0.404 µM
TGI (NCI-H460 NSCLC): 15.5 µM
GI50 (TK-10 renal): 12 µM
TGI (TK-10 renal): 26.3 µM
GI50 (HCT-15 colon): 0.473 µM
TGI (HCT-15 colon): 15 µM
TGI (IGROV1 ovarian): 5.04 µM
TGI (T-47D breast): 5.11 µM
GI50 (NCI/ADR-RES ovarian): 4.89 µM
TGI (NCI/ADR-RES ovarian): 22.5 µM
GI50 (MDA-MB-231 breast): 1.82 µM
TGI (MDA-MB-231 breast): 7.89 µM
GI50 (KM12 colon): 2.22 µM
TGI (KM12 colon): 17.4 µM
TGI (MDA-MB-468 breast): 2.53 µM
GI50 (MDA-MB-435 melanoma): 11.4 µM
TGI (MDA-MB-435 melanoma): 23.6 µM
GI50 (HT29 colon): 2.33 µM
TGI (HT29 colon): 12.8 µM
GI50 (U251 glioblastoma): 2.22 µM
TGI (U251 glioblastoma): 14 µM
TGI (MALME-3M melanoma): 3.29 µM
GI50 (PC-3 prostate): 1.16 µM
TGI (PC-3 prostate): 11.8 µM
GI50 (HOP-62 NSCLC): 0.233 µM
TGI (HOP-62 NSCLC): 13.3 µM
GI50 (SK-OV-3 ovarian): 11.6 µM
TGI (SK-OV-3 ovarian): 27.5 µM
GI50 (OVCAR-5 ovarian): 12.5 µM
TGI (OVCAR-5 ovarian): 25.4 µM
GI50 (DU-145 prostate): 1.05 µM
TGI (DU-145 prostate): 15.7 µM
TGI (A498 renal): 14.5 µM
TGI (SR leukemia): 0.441 µM
GI50 (786-0 renal): 0.148 µM
TGI (786-0 renal): 14.2 µM
TGI (MCF7 breast): 10.1 µM
